Several values for one entry are separate records, joined by “and”; a condition that tells them apart may be missing. Equal entries are not always repeated. In the oligonucleotide strings, read from the 5' end, every base follows the letter of its sugar. An asterisk marks phosphorothioate; unmarked linkages are phosphodiester. Other units and linkages are bracketed, terminal groups are in braces. A string of capitals states the bases alone. e = 2'-O-(2-methoxyethyl) (MOE); [5mC] = 5-methylcytosine; d = 2'-deoxy (DNA)
System: HeLa cells
Experiment: Cell cycle assay in HeLa cells
Format: cell-based, human
Details: for % cells aneuploid / % cells in cell cycle phase G1 / % cells in cell cycle phase G2/M / % cells in cell cycle phase S / % cells in cell cycle phase subG1 / % cells in cell cycle phase: G1 / % cells in cell cycle phase: G2/M / % cells in cell cycle phase: S / % cells in cell cycle phase: aneuploid / % cells in cell cycle phase: subG1 / % cells in cell cycle phase aneuploid: HeLa cells
[1] = 150 nM oligomeric compound, 24 hours, relative to untreated control (UTC = 100)
[2] = 150 nM oligomeric compound, 48 hours after treatment, relative to untreated control (UTC=100)
[3] = 150 nM, 48 hours, relative to untreated control
[4] = 25 nM, 48 hours, percentage of cells in phase, average of replicates
[5] = 50 nM, 48 hours, percentage of cells in phase, average of replicates
[6] = 100 nM, 48 hours, percentage of cells in phase, average of replicates
[7] = 150 nM, 48 hours, percentage of cells in phase, average of replicates

## 327877 (antisense e[5mC]*eG*e[5mC]*e[5mC]*eA*eA*eT*eA*eT*eT*eT*eA*e[5mC]*eG*eT*eG*e[5mC]*eT*eG*e[5mC]*eT*eA) [compound 327877]
[1]
  % cells aneuploid: 62%
  % cells in cell cycle phase G1: 107%
  % cells in cell cycle phase G2/M: 159%
  % cells in cell cycle phase S: 66%
  % cells in cell cycle phase subG1: 154%
[2]
  % cells in cell cycle phase: G1: 59%
  % cells in cell cycle phase: G2/M: 168%
  % cells in cell cycle phase: S: 152%
  % cells in cell cycle phase: aneuploid: 80%
  % cells in cell cycle phase: subG1: 755%

## 327896 (antisense eA*e[5mC]*eA*eG*eT*eT*e[5mC]*eT*eT*e[5mC]*eA*eA*e[5mC]*eT*eG*eG*e[5mC]*eA*eG*e[5mC]*eT*eT) [compound 327896]
[1]
  % cells aneuploid: 65%
  % cells in cell cycle phase G1: 83%
  % cells in cell cycle phase G2/M: 128%
  % cells in cell cycle phase S: 103%
  % cells in cell cycle phase subG1: 121%
[2]
  % cells in cell cycle phase: G1: 55%
  % cells in cell cycle phase: G2/M: 194%
  % cells in cell cycle phase: S: 140%
  % cells in cell cycle phase: aneuploid: 66%
  % cells in cell cycle phase: subG1: 886%
[3]
  % cells in cell cycle phase G1: 103%
  % cells in cell cycle phase G2/M: 106%
  % cells in cell cycle phase S: 94%
  % cells in cell cycle phase aneuploid: 144%
  % cells in cell cycle phase subG1: 95%

## 327902 (antisense eG*eG*e[5mC]*eT*eG*eT*e[5mC]*eA*eA*eT*eT*e[5mC]*eA*eT*eA*eG*eG*eT*e[5mC]*eA*eG) [compound 327902]
25 nM, 48 hours
  % cells in cell cycle phase: G2/M: 19%
[4]
  % cells in cell cycle phase: G1: 57%
  % cells in cell cycle phase: S: 23%
  % cells in cell cycle phase: aneuploid: 13%
  % cells in cell cycle phase: subG1: 1.6%
50 nM, 48 hours
  % cells in cell cycle phase: G2/M: 20%
[5]
  % cells in cell cycle phase: G1: 51%
  % cells in cell cycle phase: S: 30%
  % cells in cell cycle phase: aneuploid: 14%
  % cells in cell cycle phase: subG1: 2.4%
100 nM, 48 hours
  % cells in cell cycle phase: G2/M: 27%
[6]
  % cells in cell cycle phase: G1: 43%
  % cells in cell cycle phase: S: 30%
  % cells in cell cycle phase: aneuploid: 11%
  % cells in cell cycle phase: subG1: 3.1%
[1]
  % cells aneuploid: 66% and 98%
  % cells in cell cycle phase G1: 57% and 44%
  % cells in cell cycle phase G2/M: 176% and 163%
  % cells in cell cycle phase S: 106% and 121%
  % cells in cell cycle phase subG1: 178% and 175%
[2]
  % cells in cell cycle phase: G1: 39% and 44%
  % cells in cell cycle phase: G2/M: 208% and 205%
  % cells in cell cycle phase: S: 171% and 166%
  % cells in cell cycle phase: aneuploid: 81% and 87%
150 nM, 48 hours
  % cells in cell cycle phase: G2/M: 28%
[3]
  % cells in cell cycle phase G1: 108%
  % cells in cell cycle phase G2/M: 93%
  % cells in cell cycle phase S: 96%
  % cells in cell cycle phase aneuploid: 162%
  % cells in cell cycle phase subG1: 94%
[7]
  % cells in cell cycle phase: G1: 36%
  % cells in cell cycle phase: S: 36%
  % cells in cell cycle phase: aneuploid: 12%
  % cells in cell cycle phase: subG1: 6.3%

## 327904 (antisense eA*e[5mC]*eT*e[5mC]*eA*e[5mC]*e[5mC]*eG*eA*e[5mC]*eA*eG*e[5mC]*eG*eT*eT*eG*eA*eA*eT*eG*eT*eT) [compound 327904]
[1]
  % cells aneuploid: 89%
  % cells in cell cycle phase G1: 99%
  % cells in cell cycle phase G2/M: 99%
  % cells in cell cycle phase S: 102%
  % cells in cell cycle phase subG1: 114%
[2]
  % cells in cell cycle phase: G1: 87%
  % cells in cell cycle phase: G2/M: 114%
  % cells in cell cycle phase: S: 126%
  % cells in cell cycle phase: aneuploid: 80%
  % cells in cell cycle phase: subG1: 116%

## 327906 (antisense eT*e[5mC]*eA*eT*eA*eG*e[5mC]*e[5mC]*e[5mC]*eT*eG*eT*eA*e[5mC]*eA*eA*eT*eG*e[5mC]*eT*eG*e[5mC]*eT) [compound 327906]
[1]
  % cells aneuploid: 65%
  % cells in cell cycle phase G1: 153%
  % cells in cell cycle phase G2/M: 107%
  % cells in cell cycle phase S: 47%
  % cells in cell cycle phase subG1: 228%
[2]
  % cells in cell cycle phase: G1: 100%
  % cells in cell cycle phase: G2/M: 103%
  % cells in cell cycle phase: S: 98%
  % cells in cell cycle phase: aneuploid: 83%
  % cells in cell cycle phase: subG1: 57%

## 327907 (antisense eA*eG*e[5mC]*e[5mC]*eT*eA*eT*e[5mC]*e[5mC]*eT*eG*eG*eA*eT*eT*eA*e[5mC]*eT*eT*eG*eA*eA) [compound 327907]
[1]
  % cells aneuploid: 75%
  % cells in cell cycle phase G1: 119%
  % cells in cell cycle phase G2/M: 111%
  % cells in cell cycle phase S: 77%
  % cells in cell cycle phase subG1: 224%
[2]
  % cells in cell cycle phase: G1: 92%
  % cells in cell cycle phase: G2/M: 115%
  % cells in cell cycle phase: S: 111%
  % cells in cell cycle phase: aneuploid: 94%
  % cells in cell cycle phase: subG1: 116%

## 327910 (antisense eT*eG*eA*eT*eA*eG*e[5mC]*e[5mC]*e[5mC]*eT*eG*eT*eA*e[5mC]*eA*eA*eT*eG*e[5mC]*eT*eG*e[5mC]*eT) [compound 327910]
[1]
  % cells aneuploid: 73%
  % cells in cell cycle phase G1: 154%
  % cells in cell cycle phase G2/M: 118%
  % cells in cell cycle phase S: 42%
  % cells in cell cycle phase subG1: 174%
[2]
  % cells in cell cycle phase: G1: 99%
  % cells in cell cycle phase: G2/M: 111%
  % cells in cell cycle phase: S: 91%
  % cells in cell cycle phase: aneuploid: 92%
  % cells in cell cycle phase: subG1: 53%

## 327956 (antisense e[5mC]*eA*e[5mC]*eA*eG*eT*eT*eG*e[5mC]*e[5mC]*eA*eG*e[5mC]*eT*eG*eA*eG*eA*eT*eT*eA) [compound 327956]
[1]
  % cells aneuploid: 61%
  % cells in cell cycle phase G1: 124%
  % cells in cell cycle phase G2/M: 120%
  % cells in cell cycle phase S: 68%
  % cells in cell cycle phase subG1: 120%
[2]
  % cells in cell cycle phase: G1: 91%
  % cells in cell cycle phase: G2/M: 121%
  % cells in cell cycle phase: S: 106%
  % cells in cell cycle phase: aneuploid: 110%
  % cells in cell cycle phase: subG1: 184%

## 328111 (antisense eT*e[5mC]*e[5mC]*eG*eA*eG*eT*e[5mC]*eG*eG*eA*eG*eG*eA*eG*eG*eA*eG*eG*eA*eA) [compound 328111]
[1]
  % cells aneuploid: 50%
  % cells in cell cycle phase G1: 127%
  % cells in cell cycle phase G2/M: 99%
  % cells in cell cycle phase S: 75%
  % cells in cell cycle phase subG1: 62%
[2]
  % cells in cell cycle phase: G1: 84%
  % cells in cell cycle phase: G2/M: 119%
  % cells in cell cycle phase: S: 126%
  % cells in cell cycle phase: aneuploid: 90%
  % cells in cell cycle phase: subG1: 371%

## 328119 (antisense eA*eA*eT*eA*eA*e[5mC]*eA*e[5mC]*eA*e[5mC]*eA*eT*e[5mC]*e[5mC]*eA*e[5mC]*eT*eT*eT*eA*eA) [compound 328119]
[1]
  % cells aneuploid: 83%
  % cells in cell cycle phase G1: 100%
  % cells in cell cycle phase G2/M: 112%
  % cells in cell cycle phase S: 94%
  % cells in cell cycle phase subG1: 75%
[2]
  % cells in cell cycle phase: G1: 75%
  % cells in cell cycle phase: G2/M: 124%
  % cells in cell cycle phase: S: 145%
  % cells in cell cycle phase: aneuploid: 81%
  % cells in cell cycle phase: subG1: 767%

## 328136 (eA*eA*e[5mC]*eT*eA*e[5mC]*eT*eT*e[5mC]*e[5mC]*eA*eG*eA*eG*e[5mC]*eA*eG*eG*eT*eG*eA; anti-miR) [compound 328136]
[1]
  % cells aneuploid: 51%
  % cells in cell cycle phase G1: 125%
  % cells in cell cycle phase G2/M: 88%
  % cells in cell cycle phase S: 81%
  % cells in cell cycle phase subG1: 330%
[2]
  % cells in cell cycle phase: G1: 83%
  % cells in cell cycle phase: G2/M: 113%
  % cells in cell cycle phase: S: 133%
  % cells in cell cycle phase: aneuploid: 85%
  % cells in cell cycle phase: subG1: 140%

## 328362 (eT*eG*eT*eG*eT*dT*dT*dT*d[5mC]*dT*dG*dA*d[5mC]*dT*d[5mC]*eA*eG*eT*e[5mC]*eA) [compound 328362]
[1]
  % cells aneuploid: 66%
  % cells in cell cycle phase G1: 101%
  % cells in cell cycle phase G2/M: 126%
  % cells in cell cycle phase S: 87%
  % cells in cell cycle phase subG1: 114%
[2]
  % cells in cell cycle phase: G1: 96%
  % cells in cell cycle phase: G2/M: 108%
  % cells in cell cycle phase: S: 104%
  % cells in cell cycle phase: aneuploid: 97%
  % cells in cell cycle phase: subG1: 87%

## 328382 (e[5mC]*eA*eG*eA*e[5mC]*dT*d[5mC]*d[5mC]*d[5mC]*dA*dA*d[5mC]*dT*dG*dA*e[5mC]*e[5mC]*eA*eG*eA) [compound 328382]
[1]
  % cells in cell cycle phase G1: 118% and 102%
  % cells in cell cycle phase G2/M: 116% and 144%
  % cells in cell cycle phase S: 76% and 80%
[2]
  % cells in cell cycle phase: G1: 102% and 83%
  % cells in cell cycle phase: G2/M: 103% and 120%
  % cells in cell cycle phase: S: 92% and 122%
  % cells in cell cycle phase: aneuploid: 109% and 133%

## 340350 (antisense TGCTCAATAAATACCCGTTGAA; all 2'-MOE, all phosphorothioate, methylation of C not given here) [compound 340350]
[1]
  % cells aneuploid: 94%
  % cells in cell cycle phase G1: 183%
  % cells in cell cycle phase G2/M: 104%
  % cells in cell cycle phase S: 54%
  % cells in cell cycle phase subG1: 218%
[2]
  % cells in cell cycle phase: G1: 76%
  % cells in cell cycle phase: G2/M: 134%
  % cells in cell cycle phase: S: 126%
  % cells in cell cycle phase: aneuploid: 125%
  % cells in cell cycle phase: subG1: 1144%
[3]
  % cells in cell cycle phase G1: 101%
  % cells in cell cycle phase G2/M: 112%
  % cells in cell cycle phase S: 94%
  % cells in cell cycle phase aneuploid: 177%
  % cells in cell cycle phase subG1: 132%

## ACTTTCGGTTATCTAGCTTTA [ISIS 327892] (chemistry not given here) [uniform 2′-MOE PS; targets mir-131-2/mir-9]
HeLa, 150 nM, 48 hours
  phase of the cell cycle in which cells arrest or delay: G2/M- and S-phases
